Source: ChEMBL document CHEMBL1157209, “QSAR study on a novel series of 8-azaadenine analogues proposed as A1 adenosine receptor antagonists” (Eur J Med Chem, 2008)

Target: T1, Adenosine receptor A1 (Bos taurus, UniProt P28190)
T1 sequence (P28190 whole entry): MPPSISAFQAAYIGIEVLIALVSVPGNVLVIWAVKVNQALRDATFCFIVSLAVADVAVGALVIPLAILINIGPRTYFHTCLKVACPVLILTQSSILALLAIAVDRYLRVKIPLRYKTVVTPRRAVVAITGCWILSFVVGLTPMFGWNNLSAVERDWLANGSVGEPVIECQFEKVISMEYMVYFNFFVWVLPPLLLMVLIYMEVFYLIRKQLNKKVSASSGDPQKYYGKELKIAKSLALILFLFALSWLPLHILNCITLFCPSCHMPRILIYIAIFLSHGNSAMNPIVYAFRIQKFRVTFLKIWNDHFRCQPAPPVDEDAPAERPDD
Assay: Binding affinity to bovine adenosine A1 receptor

Ki | SMILES
1.6 nM | c1ccc(Cn2nnc3c(NC4CCCCC4)nc(-c4ccccc4)nc32)cc1
2.7 nM | OC1CCC(Nc2nc(-c3ccccc3)nc3c2nnn3Cc2ccccc2)CC1 (stereo not drawn)
3.1 nM | OC1CCC(Nc2nc(-c3ccccc3)nc3c2nnn3Cc2ccccc2Cl)CC1 (stereo not drawn)
1.85 nM | OC1CCC(Nc2nc(-c3ccccc3)nc3c2nnn3Cc2ccccc2F)CC1 (stereo not drawn)
21.9 nM | COc1ccc(C(=O)Nc2nc(-c3ccccc3)nc3c2nnn3Cc2ccccc2F)cc1
3.24 nM | COc1ccc(C(=O)Nc2nc(-c3ccccc3)nc3c2nnn3Cc2ccccc2)cc1
10.3 nM | O[C@H]1CCCC[C@@H]1Nc1nc(-c2ccccc2)nc2c1nnn2Cc1ccccc1
20 nM | COc1ccc(C(=O)Nc2nc(-c3ccccc3)nc3c2nnn3Cc2ccccc2Cl)cc1
